In patent US8343729B2, “Luciferin luminescent substrate of marine ostracod crustacean and method for production thereof” (National Institute of Advanced Industrial Science and …, priority 2005, dated 2013):

Test system: Marine ostracod crustacean luciferase
Assay: Measurement of luminescence spectra of marine ostracod crustacean luciferins with luciferase
Format: biochemical
Conditions: luciferase 100 ng/mL, 50 mM Tris-HCl buffer (pH 7.5)

| direction of shift of biological luminescence wavelength compared with native luciferin (11) | shift of luminescence maximum wavelength to the long wavelength side compared with native luciferin (spectrum integrated for 30 seconds) | Structure (SMILES) |
| --- | --- | --- |
| shifted to the short wavelength | – | CCC(C)c1nc2c(CCCNC(=N)N)[nH]c(-c3ccc4ccccc4c3)cn-2c1=O (centres unmarked) [Compound 36] |
| shifted to the short wavelength | – | N=C(N)NCCCc1[nH]c(-c2c[nH]c3ccccc23)cn2c(=O)c(Cc3ccccc3)nc1-2 [Compound 30] |

The next lines start with the compound.

| Structure (SMILES) | direction of shift of biological luminescence wavelength compared with native luciferin (11) | shift of luminescence maximum wavelength to the long wavelength side compared with native luciferin (spectrum integrated for 30 seconds) |
| --- | --- | --- |
| CC(c1ccccc1)c1nc2c(CCCNC(=N)N)[nH]c(-c3c[nH]c4ccccc34)cn-2c1=O (centres unmarked) [Compound 32] | shifted to the long wavelength | – |
| CC[C@H](C)c1nc2c(/C=C/CNC(=N)N)[nH]c(-c3c[nH]c4ccccc34)cn-2c1=O [Compound 17] | – | about 15 nm |
| CCC(c1ccccc1)c1nc2c(CCCNC(=N)N)[nH]c(-c3c[nH]c4ccccc34)cn-2c1=O (centres unmarked) [Compound 34] | shifted to the long wavelength | – |
